Source: patent publication US20060014726A1, “Derivatives of cyclic1, 3- propanediol phosphate and their action in differentiation therapy” (priority 2002, published 2006)

How the values were obtained:
[1] = tested on: ER-α mRNA in MCF-7 cells; experiment: Quantitative RT-PCR of ER-α mRNA in MCF-7 cells; format: cell-based, human
Description: (§1) It should however be understood that the augmented expression of ER-α and PR presented in FIGS. 1-3 could have in principle originated from increase in either transcription or translation associated with the respective steroid receptor genes. Therefore the effects of long term incubation with 1,3cPP on the respective ER-α and PR mRNA levels were examined. Quantitative RT-PCR was carried out with a Light Cycler as described. […] In contrast, only 20 μM 1,3-cPP were required to induce 7-fold increase in the ER-α mRNA in T47D clone 8 cells (FIG. 4D). The analogous data for PR are depicted for MCF-7 cells in FIGS. 5A-B where at 20 μM, there was a 3 fold increase in the normalized PR mRNA expression on the 8th day. This increase receded to about 1.5-fold by the 11th day.
MCF-7 and T47D cells were cultured and treated as described above. Total cellular RNA was extracted with TRI reagent according to the manufacturer's instructions (Molecular Research Center, Inc. Cincinnati, Ohio). Reverse transcription (RT) was performed in a total reaction mixture of 20 μl with 1-5 μg RNA by first heating to 65° C. for 5 min in the presence of 25 μg/ml Oligo (dT)12-18, and 0.5 mM deoxynucleotide triphosphates (dNTP). The RT reaction mixture was then quickly cooled on ice. […]
(§2) RT-PCR was carried out on a programmable thermal controller instrument according to standard protocols, where the annealing temperatures were 58° C. for ER-α and 56° C. for PR. […] The PCR products were diluted and used to build a standard curve for the quantitative PCR which was carried out in a Light Cycler instrument (Roche Diagnostics, Mannheim, Germany). […] For each control and test sample, the amount of the constitutively expressed house keeping enzyme glyceraldehyde-3-phosphate dehydrogenase (GAPDH) mRNA was quantified by using appropriate primers and the quantity of ER-α and PR mRNA were normalized to the quantity of GAPDH mRNA in each sample. The relative amounts of ER-α and PR mRNA were expressed as normalized 1,3cPP treatment values divided by the normalized control values.

[2] = tested on: ER-α mRNA in T47D clone 8 cells; experiment: Quantitative RT-PCR of ER-α mRNA in T47D clone 8 cells; format: cell-based, human; details: 20 μM, 6 days (FIG. 4D)
Description: as §1, with “The analogous data for PR are depicted for MCF-7 cells in FIGS. 5A-B where at 20 μM, there was a 3 fold increase in the normalized PR mRNA expression on the 8th day. This increase receded to about 1.5-fold by the 11th day.” left out
as §2

`O=P1(O)OCCCO1` [1,3-cPP, 1,3-cyclic propanediol phosphate] was tested, and the “increase in the normalized ER-α mRNA transcription” value ([1]; 50 μM, 11th day) was 10 fold, the “increase in the normalized ER-α mRNA transcription” value ([1]; 100 μM, day 6, normalized to GAPDH, relative to control) was 6 fold and the “increase in the normalized ER-α mRNA transcription” value ([1]; 100 μM, day 14, normalized to GAPDH, relative to control) was 6 fold. For the same molecule, the “increase in the ER-α mRNA” value [2] was 7 fold.
